Experimental data as given in the NIST ThermoML archive (doi:10.1016/j.fluid.2006.02.016).
Where “and” joins values, the source holds several entries; their conditions need not be identical. Equal entries are not always repeated. ± gives the expanded uncertainty stated by the source.

Settings: Liquid

Row | vapor or sublimation pressure (268.15 K) | vapor or sublimation pressure (278.15 K) | vapor or sublimation pressure (288.15 K) | vapor or sublimation pressure (298.15 K) | vapor or sublimation pressure (308.15 K) | vapor or sublimation pressure (318.15 K) | Structure (SMILES) | vapor or sublimation pressure (273.15 K) | vapor or sublimation pressure (283.15 K) | vapor or sublimation pressure (293.15 K) | vapor or sublimation pressure (303.15 K) | vapor or sublimation pressure (313.15 K) | vapor or sublimation pressure (323.15 K)
1 |  |  |  |  |  |  | FCC(F)(F)F [1,1,1,2-tetrafluoroethane] | 294.2 ± 2.5 kPa | 416.9 ± 3.3 kPa | 571.9 ± 4.3 kPa | 770.4 ± 5.6 kPa | 1012.8 ± 7.1 kPa | 1313.8 ± 9.1 kPa
2 | 529.2 ± 4 kPa | 722.4 ± 5.3 kPa | 962 ± 6.8 kPa | 1261.8 ± 8.7 kPa | 1619.8 ± 11 kPa | 2055.2 ± 14 kPa | CC(F)(F)F [1,1,1-trifluoroethane] |  |  |  |  |  | 
3 | 407.9 ± 3.3 kPa | 549.4 ± 4.2 kPa | 735 ± 5.4 kPa | 954.8 ± 6.8 kPa | 1213 ± 8.4 kPa | 1530.8 ± 10 kPa | CCC [propane] | 474.6 ± 3.7 kPa | 636.6 ± 4.7 kPa | 836.2 ± 6 kPa | 1078.4 ± 7.6 kPa | 1369 ± 12 kPa and 1363.8 ± 9.4 kPa | 1709.2 ± 12 kPa
